According to ChEMBL document CHEMBL3580636, “Discovery of a Potent Class of PI3Kα Inhibitors with Unique Binding Mode via Encoded Library Technology (ELT)” (ACS Med Chem Lett, 2015):

Legend:
[1] = target: Phosphatidylinositol 4,5-bisphosphate 3-kinase catalytic subunit alpha isoform (Homo sapiens, UniProt P42336); test: Inhibition of wild type his-tagged PI3Kalpha (unknown origin)
[2] = target: Phosphatidylinositol 4,5-bisphosphate 3-kinase catalytic subunit beta isoform (Homo sapiens, UniProt P42338); test: Inhibition of PI3Kbeta (unknown origin)
[3] = target: Phosphatidylinositol 4,5-bisphosphate 3-kinase catalytic subunit gamma isoform (Homo sapiens, UniProt P48736); test: Inhibition of PI3Kgamma (unknown origin)
[4] = target: Phosphatidylinositol 4,5-bisphosphate 3-kinase catalytic subunit alpha isoform (Homo sapiens, UniProt P42336, H1047R); test: Inhibition of PI3Kalpha H1047R mutant (unknown origin)
[5] = target: T1, Phosphatidylinositol 4,5-bisphosphate 3-kinase catalytic subunit delta isoform (Homo sapiens, UniProt O00329); test: Inhibition of PI3Kdelta (unknown origin)
T1 sequence (O00329 whole entry): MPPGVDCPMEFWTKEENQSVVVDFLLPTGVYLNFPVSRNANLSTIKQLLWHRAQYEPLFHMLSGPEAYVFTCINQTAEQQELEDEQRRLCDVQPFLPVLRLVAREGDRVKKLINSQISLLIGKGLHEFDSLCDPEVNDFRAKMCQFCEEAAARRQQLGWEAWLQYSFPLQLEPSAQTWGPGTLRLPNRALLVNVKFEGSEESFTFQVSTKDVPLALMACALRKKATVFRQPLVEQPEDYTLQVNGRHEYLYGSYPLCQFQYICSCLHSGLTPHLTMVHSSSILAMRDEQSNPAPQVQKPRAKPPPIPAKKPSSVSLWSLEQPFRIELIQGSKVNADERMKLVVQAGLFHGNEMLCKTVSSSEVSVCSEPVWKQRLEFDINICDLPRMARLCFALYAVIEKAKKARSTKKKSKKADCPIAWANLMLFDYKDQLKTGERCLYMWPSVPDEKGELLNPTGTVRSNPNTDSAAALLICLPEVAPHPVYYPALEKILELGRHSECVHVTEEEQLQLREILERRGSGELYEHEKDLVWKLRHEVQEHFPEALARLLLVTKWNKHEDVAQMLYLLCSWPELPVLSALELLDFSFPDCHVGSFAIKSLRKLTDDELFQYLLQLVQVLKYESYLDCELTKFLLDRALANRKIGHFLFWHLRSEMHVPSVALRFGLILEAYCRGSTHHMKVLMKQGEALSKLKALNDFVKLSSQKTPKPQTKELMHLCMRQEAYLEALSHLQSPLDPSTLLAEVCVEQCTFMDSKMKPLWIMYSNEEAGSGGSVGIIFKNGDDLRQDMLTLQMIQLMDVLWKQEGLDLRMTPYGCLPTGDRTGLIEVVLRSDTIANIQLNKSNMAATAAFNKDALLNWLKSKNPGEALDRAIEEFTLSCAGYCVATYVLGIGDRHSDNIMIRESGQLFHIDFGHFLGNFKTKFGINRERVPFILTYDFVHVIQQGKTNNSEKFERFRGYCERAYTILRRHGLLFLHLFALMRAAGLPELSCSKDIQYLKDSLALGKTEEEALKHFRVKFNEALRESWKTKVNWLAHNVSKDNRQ

[6] = organism: Homo sapiens; test: Selectivity ratio of IC50 for PI3Kbeta (unknown origin) to IC50 for wild type his-tagged PI3Kalpha (unknown origin)
[7] = organism: Homo sapiens; test: Selectivity ratio of IC50 for PI3Kdelta (unknown origin) to IC50 for wild type his-tagged PI3Kalpha (unknown origin)

Sequence of Phosphatidylinositol 4,5-bisphosphate 3-kinase catalytic subunit alpha isoform (Homo sapiens, UniProt P42336, H1047R) (P42336 whole entry H1047R, canonical isoform): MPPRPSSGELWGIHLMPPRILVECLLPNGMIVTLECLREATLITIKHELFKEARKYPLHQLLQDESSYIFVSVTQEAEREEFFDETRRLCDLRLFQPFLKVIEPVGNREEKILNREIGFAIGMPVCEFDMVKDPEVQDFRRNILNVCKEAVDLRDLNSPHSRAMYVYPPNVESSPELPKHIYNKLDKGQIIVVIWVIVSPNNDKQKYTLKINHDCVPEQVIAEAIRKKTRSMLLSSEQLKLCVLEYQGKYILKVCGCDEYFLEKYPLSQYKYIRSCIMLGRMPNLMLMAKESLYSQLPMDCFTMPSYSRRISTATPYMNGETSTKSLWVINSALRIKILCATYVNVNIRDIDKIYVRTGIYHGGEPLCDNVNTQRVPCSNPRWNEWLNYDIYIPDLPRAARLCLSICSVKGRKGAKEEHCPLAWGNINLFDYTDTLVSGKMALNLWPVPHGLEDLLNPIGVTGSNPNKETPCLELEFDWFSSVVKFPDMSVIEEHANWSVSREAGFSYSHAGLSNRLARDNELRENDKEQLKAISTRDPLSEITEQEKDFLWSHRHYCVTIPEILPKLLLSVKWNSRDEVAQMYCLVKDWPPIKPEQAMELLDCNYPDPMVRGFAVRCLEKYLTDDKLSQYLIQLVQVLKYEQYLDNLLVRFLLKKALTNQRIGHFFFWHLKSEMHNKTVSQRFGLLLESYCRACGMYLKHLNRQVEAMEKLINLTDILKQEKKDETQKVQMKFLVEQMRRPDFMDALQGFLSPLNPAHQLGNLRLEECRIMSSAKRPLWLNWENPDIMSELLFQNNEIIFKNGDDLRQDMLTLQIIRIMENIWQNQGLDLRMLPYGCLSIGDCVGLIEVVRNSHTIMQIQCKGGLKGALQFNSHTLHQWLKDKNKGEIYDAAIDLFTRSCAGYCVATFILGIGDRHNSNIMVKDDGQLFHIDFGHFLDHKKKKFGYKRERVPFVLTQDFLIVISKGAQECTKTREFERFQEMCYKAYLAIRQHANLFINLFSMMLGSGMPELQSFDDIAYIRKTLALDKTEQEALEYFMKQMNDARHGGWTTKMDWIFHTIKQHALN
Sequence of Phosphatidylinositol 4,5-bisphosphate 3-kinase catalytic subunit gamma isoform (P48736 whole entry, canonical isoform): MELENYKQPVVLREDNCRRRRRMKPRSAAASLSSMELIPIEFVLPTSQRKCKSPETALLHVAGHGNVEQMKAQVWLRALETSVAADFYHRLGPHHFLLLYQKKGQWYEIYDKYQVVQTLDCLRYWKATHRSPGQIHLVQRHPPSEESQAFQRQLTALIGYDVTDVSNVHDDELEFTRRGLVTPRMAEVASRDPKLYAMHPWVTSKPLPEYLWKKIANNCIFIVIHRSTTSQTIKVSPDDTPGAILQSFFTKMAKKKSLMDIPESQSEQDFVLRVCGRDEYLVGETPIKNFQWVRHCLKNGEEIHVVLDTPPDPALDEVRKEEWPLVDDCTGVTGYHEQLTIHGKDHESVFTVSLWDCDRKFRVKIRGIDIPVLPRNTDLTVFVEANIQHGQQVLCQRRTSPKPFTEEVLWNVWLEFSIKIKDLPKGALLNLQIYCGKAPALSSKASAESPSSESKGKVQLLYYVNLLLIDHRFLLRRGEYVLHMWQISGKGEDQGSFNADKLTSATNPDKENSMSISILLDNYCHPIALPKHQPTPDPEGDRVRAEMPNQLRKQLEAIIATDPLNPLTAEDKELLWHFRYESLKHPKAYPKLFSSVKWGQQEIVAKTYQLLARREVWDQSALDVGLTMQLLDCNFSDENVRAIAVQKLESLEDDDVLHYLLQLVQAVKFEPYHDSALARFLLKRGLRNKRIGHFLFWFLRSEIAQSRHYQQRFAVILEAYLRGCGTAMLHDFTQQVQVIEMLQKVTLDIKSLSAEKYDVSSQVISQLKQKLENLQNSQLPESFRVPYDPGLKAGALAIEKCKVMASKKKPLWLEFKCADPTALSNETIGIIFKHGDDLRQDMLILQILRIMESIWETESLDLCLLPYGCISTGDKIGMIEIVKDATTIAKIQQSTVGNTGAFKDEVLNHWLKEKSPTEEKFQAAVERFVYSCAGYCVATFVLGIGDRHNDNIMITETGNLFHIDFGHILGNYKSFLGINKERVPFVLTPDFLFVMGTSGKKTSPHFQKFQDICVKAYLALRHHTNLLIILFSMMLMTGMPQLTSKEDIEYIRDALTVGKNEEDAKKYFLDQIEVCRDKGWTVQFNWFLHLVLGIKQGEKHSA
Sequence of Phosphatidylinositol 4,5-bisphosphate 3-kinase catalytic subunit beta isoform (P42338 whole entry, canonical isoform): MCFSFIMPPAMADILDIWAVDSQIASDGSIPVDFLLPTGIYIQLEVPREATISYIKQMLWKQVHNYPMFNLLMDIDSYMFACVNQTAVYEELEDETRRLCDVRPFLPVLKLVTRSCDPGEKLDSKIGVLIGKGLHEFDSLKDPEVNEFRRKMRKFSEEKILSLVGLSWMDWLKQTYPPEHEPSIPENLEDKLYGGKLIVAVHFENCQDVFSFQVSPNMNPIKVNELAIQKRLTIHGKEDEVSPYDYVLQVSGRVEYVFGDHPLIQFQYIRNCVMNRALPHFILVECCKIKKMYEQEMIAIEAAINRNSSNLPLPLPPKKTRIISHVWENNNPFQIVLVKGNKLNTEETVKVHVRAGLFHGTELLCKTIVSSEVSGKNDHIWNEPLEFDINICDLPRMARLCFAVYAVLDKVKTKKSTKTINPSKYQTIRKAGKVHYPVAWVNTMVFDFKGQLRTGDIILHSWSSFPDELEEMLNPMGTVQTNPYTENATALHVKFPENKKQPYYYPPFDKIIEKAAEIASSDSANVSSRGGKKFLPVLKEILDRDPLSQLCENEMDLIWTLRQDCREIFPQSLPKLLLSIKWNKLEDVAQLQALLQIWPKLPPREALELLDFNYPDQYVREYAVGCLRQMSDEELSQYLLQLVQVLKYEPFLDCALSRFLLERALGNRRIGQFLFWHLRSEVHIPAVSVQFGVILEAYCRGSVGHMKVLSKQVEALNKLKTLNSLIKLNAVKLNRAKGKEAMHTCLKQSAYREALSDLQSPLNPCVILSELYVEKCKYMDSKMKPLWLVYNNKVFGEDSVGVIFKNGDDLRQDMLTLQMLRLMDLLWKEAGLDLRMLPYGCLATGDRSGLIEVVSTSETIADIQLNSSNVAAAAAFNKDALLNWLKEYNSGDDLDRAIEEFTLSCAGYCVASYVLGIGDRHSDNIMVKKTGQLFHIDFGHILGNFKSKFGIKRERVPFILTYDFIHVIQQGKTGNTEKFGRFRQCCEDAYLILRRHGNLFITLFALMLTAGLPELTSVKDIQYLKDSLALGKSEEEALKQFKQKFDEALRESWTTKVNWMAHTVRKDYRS
Sequence of Phosphatidylinositol 4,5-bisphosphate 3-kinase catalytic subunit alpha isoform (Homo sapiens, UniProt P42336) (P42336 whole entry, canonical isoform): as the sequence (P42336 whole entry H1047R, canonical isoform) above, with R1047H counted along it

Row | Structure (SMILES) | IC50 [1] | IC50 [2] | IC50 [3] | IC50 [4] | IC50 [5] | Ratio IC50 [6] | Ratio IC50 [7]
1 | COc1ccc(-c2cc(CNc3ccc(S(=O)(=O)N(C)c4nnc(C)s4)cc3)cc(C(=O)NCCc3ccccc3F)c2)cn1 | 2000 nM | > 10000 nM | > 10000 nM | > 10000 nM | 2000 nM |  | 
2 | Cc1nnc(NS(=O)(=O)c2ccc(NCc3cc(C(=O)O)cc(-c4ccc5c(c4)OCO5)c3)cc2)s1 | 39.8 nM | 501 nM | 4 nM |  | 199 nM | 5 | 5
3 | COc1ccc(-c2cccc(CNc3ccc(S(=O)(=O)Nc4nnc(C)s4)cc3)c2)cn1 | 102 nM | 765 nM | 52 nM |  | 44 nM |  | 
4 | COc1ccc(-c2cc(CNc3ccc(S(=O)(=O)Nc4nnc(C)s4)cc3)cc(C(=O)NCCC(C)C)c2)cn1 | 9.6 nM | 398 nM | 10 nM | 11 nM | 4 nM |  | 
5 | COc1ccc(-c2cc(CNc3ccc(S(=O)(=O)Nc4nnc(C)s4)cc3)cc(C(=O)NCCc3ccccc3F)c2)cn1 | 6.5 nM | 700 nM | 4.4 nM | 13 nM | 10 nM |  | 
6 | Cc1nnc(NS(=O)(=O)c2ccc(NCc3cc(C(=O)O)cc(-c4ccc5c(c4)OCCO5)c3)cc2)s1 | 12.6 nM | 126 nM | 2 nM |  | 63.1 nM | 5 | 5

The remaining lines, values ahead:

Row | IC50 [1] | IC50 [2] | IC50 [3] | IC50 [4] | IC50 [5] | Ratio IC50 [6] | Ratio IC50 [7] | Structure (SMILES)
7 | > 25000 nM |  |  | 13000 nM |  |  |  | COC(=O)c1cc(I)cc(CNc2ccc(S(=O)(=O)Nc3nnc(C)s3)cc2)c1
8 | 16 nM | 790 nM | 25 nM | 16 nM | 20 nM |  |  | COc1ccc(-c2cc(CNc3ccc(S(=O)(=O)Nc4nnc(C)s4)cc3)cc(C(=O)NC(CO)CO)c2)cn1
9 | 10 nM | 149 nM | 2.6 nM | 8.5 nM | 59 nM | 5 | 5 | COc1ccc(-c2cc(CNc3ccc(S(=O)(=O)Nc4nnc(C)s4)cc3)cc(C(=O)O)c2)cn1
10 | 46 nM |  |  | 30 nM |  |  |  | COC(=O)c1cc(CNc2ccc(S(=O)(=O)Nc3nnc(C)s3)cc2)cc(-c2ccc(OC)nc2)c1
